From patent US20210207161A1, “PLANTS CONTAINING ELITE EVENT EE-GM5 AND METHODS AND KITS FOR IDENTIFYING SUCH EVENT IN BIOLOGICAL SAMPLES, AND TREATMENT THEREOF” (priority 2018, published 2021)

Tests used:
[1] = system: soybean plants containing event EE-GM5; assay: HPPD inhibitor herbicide tolerance field trials (maximum phytotoxicity); format: in vivo, soybean (Glycine max); settings: for tolerance of plants with EE-GM5 to the herbicide: field, different locations over 2 years; for average maximum phytotoxicity value: several field trials across 2 years
From the text: Numbers in ( ) below a treatment give the number of trials included in the bar, the number on top of each bar gives the average maximum phytotoxicity value for that treatment. Treatments applied were: IFT=isoxaflutole, MST=mesotrione, PE=pre-emergence, P0=post-emergence (at V2-V3 stage, with adjuvants crop oil concentrate and ammonium sulfate added to increase herbicide activity). Rates shown are in gram active ingredient/hectare (4× dose in pre-emergence, 2× dose in post-emergence).
Tolerance of plants comprising EE-GM5 to HPPD inhibitor herbicides was tested at different locations in the field over 2 years. […] All post-emergence treatments were at the V2-V3 stage, with adjuvants crop oil concentrate and ammonium sulfate added to increase herbicide activity.
The “maximum phytotoxicity” as used herein is the highest phytotoxicity rating recorded at any observation during the duration of a trial (with 3 to 4 observations per trial). In existing weed control applications, a normal (lx) dose for isoxaflutole (IFT) in pre- or post-emergence application and for MST in post-emergence application is 105 gr/ha, and a normal (lx) dose for mesotrione in pre-emergence application is 210 gr/ha.
Also, in several field trials across 2 years, soybean plants with event EE-GM5 had good tolerance towards experimental HPPD inhibitor compound 2-methyl-N-(5-methyl-1,3,4-oxadiazol-2-yl)-3-(methylsulfonyl)-4-(trifluoromethyl)benzamide (U.S. Pat. No. 9,101,141) when applied pre-emergence at 400 gr ai/ha or post-emergence at 200 gr ai/ha, respectively (the average maximum phytotoxicity value for each treatment was below 20%). […] All post-emergence treatments were at the V2-V3 stage, with adjuvants crop oil concentrate and ammonium sulfate added to increase herbicide activity.
Also, plants with EE-GM5 when treated post-emergent (V2-V3) with topramezone at 36 g ai/ha (+COC and AMS) in 2 field trials in the US gave an average maximum phytotoxicity of 11%, showing EE-GM5 also confers good tolerance to this HPPD inhibitor.

[2] = system: soybean plants containing event EE-GM5; assay: as above; format: in vivo, soybean (Glycine max); settings: 3rd year
[3] = applied post-emergence (V2-V3 stage, with adjuvants)

In the case of `CS(=O)(=O)c1cc(C(F)(F)F)ccc1C(=O)c1cnoc1C1CC1` [isoxaflutole, (5-cyclopropyl-4-isoxazolyl)[2-(methylsulfonyl)-4-(trifluoromethyl)phenyl]methanone], the “tolerance of plants with EE-GM5 to the herbicide” value (“tolerance of plants with EE-GM5” for short) [1, 3] is reported as “commercially relevant tolerance”, the “tolerance of plants with EE-GM5” value ([1]; applied pre-emergence) is reported as “commercially relevant tolerance” and the average maximum phytotoxicity ([2]; post-emergence (V2-V3 stage), 210 h/ha, 4 locations, EE-GM5 in Thorne background) is reported as 10.9%. The maximum phytotoxicity ([2]; pre-emergence, 410 g/ha, one field trial location, EE-GM5 in Thorne background) was 9%.
Molecule `Cc1c(C(=O)c2cnn(C)c2O)ccc(S(C)(=O)=O)c1C1=NOCC1` [topramezone, [3-(4,5-dihydro-3-isoxazolyl)-2-methyl-4-(methylsulfonyl)phenyl](5-hydroxy-1-methyl-1H-pyrazol-4-yl)methanone] has an average maximum phytotoxicity ([1]; post-emergent (V2-V3) at 36 g ai/ha (+COC and AMS), 2 field trials in the US) of 11%.
For `Cc1nnc(NC(=O)c2ccc(C(F)(F)F)c(S(C)(=O)=O)c2C)o1` [2-methyl-N-(5-methyl-1,3,4-oxadiazol-2-yl)-3-(methylsulfonyl)-4-(trifluoromethyl)benzamide], the “average maximum phytotoxicity value” ([1]; post-emergence (V2-V3) at 200 gr ai/ha, with crop oil concentrate and ammonium sulfate) was “below 20%” and the “average maximum phytotoxicity value” ([1]; pre-emergence at 400 gr ai/ha) was “below 20%”.
In the case of `CS(=O)(=O)c1ccc(C(=O)C2C(=O)CCCC2=O)c([N+](=O)[O-])c1` [mesotrione, 2-[4-(Methylsulfonyl)-2-nitrobenzoyl]cyclohexane-1,3-dione], the “tolerance of plants with EE-GM5” value [1, 3] is reported as “commercially relevant tolerance” and the “tolerance of plants with EE-GM5” value ([1]; applied pre-emergence) is reported as “commercially relevant tolerance”.
In the case of `CSc1c(C(F)(F)F)ccc(C(=O)Nc2nnnn2C)c1Cl` [2-chloro-3-(methylsulfanyl)-N-(1-methyl-1H-tetrazol-5-yl)-4-(trifluoromethyl)benzamide], the average maximum phytotoxicity ([1]; post-emergence (V2-V3) at 100-150 gr ai/ha, with crop oil concentrate and ammonium sulfate) is reported as 20% and the average maximum phytotoxicity ([2]; post-emergence at 150 g/ha, 3 field trial locations, Thorne background) is reported as 13.3%.
